Test results as given in patent US20080177067A1, “Crystal forms of 9-hydroxy-risperidone (paliperidone)” (priority 2006, published 2008).

Legend:
[1] = Weight loss measured by TGA; format: physicochemical
[2] = Water content measured by KF titration; format: physicochemical

Row | Compound | weight loss, as measured by TGA ([1]; between 25-168° C.) | water content, as measured by KF titration [2] | weight loss, as measured by TGA ([1]; between 25-145° C.) | weight loss, as measured by TGA ([1]; between 25-155° C.)
1 | Cc1nc2n(c(=O)c1CCN1CCC(c3noc4cc(F)ccc34)CC1)CCCC2O (centres unmarked) [Form I, 3-[2-[4-(6-fluorobenzo[d]isoxazol-3-yl)-1-piperidyl]ethyl]-7-hydroxy-4-methyl-1,5-diazabicyclo[4.4.0]deca-3,5-dien-2-one] | about 0.6% | about 0.5% | – | –
2 | Cc1nc2n(c(=O)c1CCN1CCC(c3noc4cc(F)ccc34)CC1)CCCC2O (centres unmarked) [Form II, 3-[2-[4-(6-fluorobenzo[d]isoxazol-3-yl)-1-piperidyl]ethyl]-7-hydroxy-4-methyl-1,5-diazabicyclo[4.4.0]deca-3,5-dien-2-one] | – | about 0.5% | about 0.4% | –
3 | Cc1nc2n(c(=O)c1CCN1CCC(c3noc4cc(F)ccc34)CC1)CCCC2O (centres unmarked) [Form III, 3-[2-[4-(6-fluorobenzo[d]isoxazol-3-yl)-1-piperidyl]ethyl]-7-hydroxy-4-methyl-1,5-diazabicyclo[4.4.0]deca-3,5-dien-2-one] | about 19.2% | about 0.2% | – | –
4 | Cc1nc2n(c(=O)c1CCN1CCC(c3noc4cc(F)ccc34)CC1)CCCC2O (centres unmarked) [Form V, 3-[2-[4-(6-fluorobenzo[d]isoxazol-3-yl)-1-piperidyl]ethyl]-7-hydroxy-4-methyl-1,5-diazabicyclo[4.4.0]deca-3,5-dien-2-one] | – | about 0.3% | – | about 0.1%
